Tested on: PBMC of healthy volunteers (HLA-A*0201 or HLA-A*2601)
Assay: IFN-γ production (ELISA) by DDX3X-derived peptide stimulation of peptide-induced CTL from PBMC
Assay type: cell-based, human
Settings: peptide 20 μg/mL, 24 hours
Method: PBMC (1.5×10^7 cells) were inoculated in a 24-well plate in 1.5×10^6 cells/well (Day 0). Then, three types of DDX3X-derived peptides (final concentration 20 μg/mL each), and IL-7 (final concentration 10 ng/mL) were added to each well, and the cells were cultured at 37° C. in 5% CO2.
The cells were re-stimulated after 1 week (Day 7). For re-stimulation, the PBMC cryopreserved as antigen-presenting cells in Day 0 were thawed, and the three types of DDX3X-derived peptides (final concentration 20 μg/mL each) were added and conjugated at 37° C. for 2 hours after adjusting the cells to 3×10^6 cells/mL or less. This was followed by addition of a mitomycin C [Kyowa Hakko Kirin] solution to make the final concentration 50 μg/mL, and the cells were treated at 37° C. for 45 min. The cells were washed twice with AIM-V, and resuspended in medium to obtain an antigen-presenting cell suspension. After harvesting cells cultured for 1 week, the cells were inoculated in a 24-well plate in 1.2×10^6 cells/well, and the antigen-presenting cell suspension was inoculated with the same number of cells. Finally, IL-7 was added at 10 ng/ml, and the cells were cultured at 37° C. in 5% CO2. After 2 days (Day 9), half of the culture medium was gently removed from each well, and replaced with 40 U/mL of IL-2-containing medium for further culture. The half-volume replacement of the culture medium with 20 U/mL of IL-2-containing medium was repeated in the same fashion every other day (Day 11, Day 13). Re-stimulation was repeated in Day 14 and Day 21 using the same procedure. […]
Twenty-four hours after peptide stimulation, the culture supernatant was gently collected from each well. IFN-γ concentration in each culture supernatant was detected by ELISA, by using an ELISA reagent set (BD OptEIA ELISA set (human IFN-7)(trade name)) according to the manufacturer's protocol after modification. […] Measurements were made with a visible wavelength absorbance microplate reader (VERSAmax(trade name); Molecular Device).

| Sequence | samples showing IFN-γ production (Day 28, samples with A*2601) | samples showing IFN-γ production (Day 21, samples with A*2601) | samples showing IFN-γ production (Day 28, samples with A*0201) |
| --- | --- | --- | --- |
| FVETKKGADSLEDFLYHEGY (listed as Homo sapiens) [DDX3X-20 mer] | one of the five |  |  |
| LEDFLYHEGY (listed as Homo sapiens) [DDX3X-10 mer] |  | two of the five | one of the six |
